≈ marks a conversion by molar mass, not a printed value.
How the values were obtained:
Type in all cases: cell-based
[1] = system: Phytophthora capsici (Pc); assay: In vitro pathogen growth inhibition assay, Pc; details: 48 h, ≥90% inhibition, 48 hours vs 2% DMSO control, read-out: Compound Concentration (ppm) sufficient for ≥90% inhibition of growth, Pc
Summary of the method: (§1)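 Value reported is the compound concentration reaching ≥90% growth inhibition, from OD readings at 24 and 48 h after blank subtraction, confirmed visually. Inoculum was spores diluted in 17% V8 medium, except Rs, using 1.5 mm mycelial plugs in ¼ PDB; actual compound concentration corrected via OD600.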

[2] = system: Diplodia maydis (Dm); assay: In vitro pathogen growth inhibition assay, Dm; details: Stenocarpella maydis, 48 h, ≥90% inhibition; 48 hours vs 2% DMSO control; read-out: Compound Concentration (ppm) sufficient for ≥90% inhibition of growth, Dm
Summary of the method: as §1

[3] = system: Collectotrichum graminicola (Cg); assay: In vitro pathogen growth inhibition assay, Cg; details: 48 h, ≥90% inhibition; 48 hours vs 2% DMSO control; read-out: Compound Concentration (ppm) sufficient for ≥90% inhibition of growth, Cg
Summary of the method: (§2)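 Spores in 17% V8 liquid medium, or 1.5 mm Rs mycelial plugs in ¼ PDB, incubated with compound; final concentration checked by OD600 for precipitation. OD readings at 24 and 48 h, blank-subtracted, plus visual ratings; value is concentration giving ≥90% growth inhibition.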

[4] = system: Fusarium virguliforme (Fv); assay: In vitro pathogen growth inhibition assay, Fv; details: ≥90% inhibition, 48 hours vs 2% DMSO control, read-out: Compound Concentration (ppm) sufficient for ≥90% inhibition of growth, Fv
Summary of the method: as §1

[5] = system: Botrtyis cinerea (Bc); assay: In vitro pathogen growth inhibition assay, Bc; details: 48 h, ≥90% inhibition; 48 hours vs 2% DMSO control; read-out: Compound Concentration (ppm) sufficient for ≥90% inhibition of growth, Bc
Summary of the method: as §2

[6] = system: Rhizoctonia solani (Rs); assay: In vitro pathogen growth inhibition assay, Rs (mycelial plugs); details: Rhizoctonia solani, 48 h, ≥90% inhibition; mycelial plugs; 48 hours vs 2% DMSO control; read-out: Compound Concentration (ppm) sufficient for ≥90% inhibition of growth, Rs
Summary of the method: as §1

[7] = system: Septoria tritici (St); assay: In vitro pathogen growth inhibition assay, St; details: Zymoseptoria tritici, 48 h, ≥90% inhibition; 48 hours vs 2% DMSO control; read-out: Compound Concentration (ppm) sufficient for ≥90% inhibition of growth, St
Summary of the method: as §2

[8] = system: Fusarium moniliforme (Fm); assay: In vitro pathogen growth inhibition assay, Fm; details: Fusarium verticillioides; ≥90% inhibition; 48 hours vs 2% DMSO control; read-out: Compound Concentration (ppm) sufficient for ≥90% inhibition of growth, Fm
Summary of the method: as §2

Row | Compound | IC90 [1] | IC90 [2] | IC90 [3] | IC90 [4] | IC90 [5] | IC90 [6] | IC90 [7] | IC90 [8]
1 | Cc1c(-n2nccn2)sc2c1c(=O)n(C(C)(C)C(=O)NC(C)C)c(=O)n2C[C@H](OC(C)C)c1cc(F)ccc1OCCO [Compound I-071] | ≥ 50 mg/L | 0.4 mg/L (≈ 0.649 µM) | 0.4 mg/L (≈ 0.649 µM) | 0.4 mg/L (≈ 0.649 µM) | 0.4 mg/L (≈ 0.649 µM) | ≥ 0.08 mg/L | ≥ 50 mg/L | 0.08 mg/L (≈ 0.13 µM)
2 | COc1ccc(F)cc1[C@H](Cn1c(=O)n(C(C)(C)C(=O)NC(C)C)c(=O)c2c(C)c(-n3nccn3)sc21)OCC(C)(C)O [Compound I-072] | 10 mg/L (≈ 16.2 µM) | 0.4 mg/L (≈ 0.649 µM) | ≥ 0.08 mg/L | 0.4 mg/L (≈ 0.649 µM) | 2 mg/L (≈ 3.24 µM) | ≥ 0.4 mg/L | ≥ 2 mg/L | 0.08 mg/L (≈ 0.13 µM)
3 | COc1ccc(F)cc1[C@H](Cn1c(=O)n(C(C)(C)C(=O)N2CCCC2)c(=O)c2c(C)c(-n3nccn3)sc21)OCC(C)(C)O [Compound I-073] | > 50 mg/L | 2 mg/L (≈ 3.18 µM) | 0.4 mg/L (≈ 0.636 µM) | 0.4 mg/L (≈ 0.636 µM) | 2 mg/L (≈ 3.18 µM) | ≥ 0.4 mg/L | ≥ 10 mg/L | 0.08 mg/L (≈ 0.127 µM)
4 | COc1ccc(F)cc1[C@H](Cn1c(=O)n(C(C)(C)C(=O)N2CC=CC2)c(=O)c2c(C)c(-n3nccn3)sc21)OC1CCOCC1 [Compound I-075] | > 50 mg/L | 0.4 mg/L (≈ 0.626 µM) | 0.4 mg/L (≈ 0.626 µM) | 0.4 mg/L (≈ 0.626 µM) | 2 mg/L (≈ 3.13 µM) | 0.08 mg/L (≈ 0.125 µM) | > 50 mg/L | 0.08 mg/L (≈ 0.125 µM)
5 | COCCOc1ccc(F)cc1[C@H](Cn1c(=O)n(C(C)(C)C(=O)NC(C)C)c(=O)c2c(C)c(-n3nccn3)sc21)OC1CCOCC1 [Compound I-076] | ≥ 50 mg/L | 0.4 mg/L (≈ 0.595 µM) | 0.4 mg/L (≈ 0.595 µM) | 0.4 mg/L (≈ 0.595 µM) | 2 mg/L (≈ 2.97 µM) | 0.08 mg/L (≈ 0.119 µM) | ≥ 10 mg/L | 0.08 mg/L (≈ 0.119 µM)
6 | C=CCO[C@@H](Cn1c(=O)n(C(C)(C)C(=O)NC(C)C)c(=O)c2c(C)c(-n3nccn3)sc21)c1cc(F)ccc1OC [Compound I-077] | > 50 mg/L | 2 mg/L (≈ 3.42 µM) | 2 mg/L (≈ 3.42 µM) | 0.4 mg/L (≈ 0.684 µM) | 2 mg/L (≈ 3.42 µM) | 0.4 mg/L (≈ 0.684 µM) | > 50 mg/L | 0.08 mg/L (≈ 0.137 µM)
7 | COc1ccc(F)cc1[C@H](Cn1c(=O)n(C(C)(C)C(=O)NC2CC2)c(=O)c2c(C)c(-n3nccn3)sc21)OC(C)C [Compound I-078] | > 50 mg/L | 2 mg/L (≈ 3.42 µM) | 2 mg/L (≈ 3.42 µM) | 0.4 mg/L (≈ 0.684 µM) | 2 mg/L (≈ 3.42 µM) | 0.4 mg/L (≈ 0.684 µM) | > 50 mg/L | 0.08 mg/L (≈ 0.137 µM)
8 | C=CCNC(=O)C(C)(C)n1c(=O)c2c(C)c(-n3nccn3)sc2n(C[C@H](OC2CCOCC2)c2cc(F)ccc2OC)c1=O [Compound I-079] | > 50 mg/L | 2 mg/L (≈ 3.19 µM) | 2 mg/L (≈ 3.19 µM) | 0.4 mg/L (≈ 0.638 µM) | 2 mg/L (≈ 3.19 µM) | 0.4 mg/L (≈ 0.638 µM) | > 50 mg/L | 0.08 mg/L (≈ 0.128 µM)
9 | C=CCN(C)C(=O)C(C)(C)n1c(=O)c2c(C)c(-n3nccn3)sc2n(C[C@H](OC2CCOCC2)c2cc(F)ccc2OC)c1=O [Compound I-080] | > 50 mg/L | 0.4 mg/L (≈ 0.624 µM) | 0.08 mg/L (≈ 0.125 µM) | 2 mg/L (≈ 3.12 µM) | 0.4 mg/L (≈ 0.624 µM) | 0.08 mg/L (≈ 0.125 µM) | > 50 mg/L | 0.08 mg/L (≈ 0.125 µM)
10 | COc1ccc(F)cc1[C@H](Cn1c(=O)n(C(C)(C)C(=O)N2CC=CC2)c(=O)c2c(C)c(-n3nccn3)sc21)OC[C@@H](C)O [Compound I-081] | ≥ 50 mg/L | 2 mg/L (≈ 3.26 µM) | 0.4 mg/L (≈ 0.653 µM) | 0.4 mg/L (≈ 0.653 µM) | 2 mg/L (≈ 3.26 µM) | 0.4 mg/L (≈ 0.653 µM) | > 50 mg/L | 0.08 mg/L (≈ 0.131 µM)
11 | COCCCO[C@@H](Cn1c(=O)n(C(C)(C)C(=O)N2CCCC2)c(=O)c2c(C)c(-n3nccn3)sc21)c1cc(F)ccc1OC [Compound I-083] | > 50 mg/L | 2 mg/L (≈ 3.18 µM) | 2 mg/L (≈ 3.18 µM) | 0.4 mg/L (≈ 0.636 µM) | 2 mg/L (≈ 3.18 µM) | 0.4 mg/L (≈ 0.636 µM) | ≥ 50 mg/L | 0.08 mg/L (≈ 0.127 µM)
12 | CCOC(=O)C(C)(C)n1c(=O)c2c(C)c(-n3nccn3)sc2n(C[C@H](OCCO)c2cc(F)ccc2OC)c1=O [Compound I-085] | > 50 mg/L | 0.4 mg/L (≈ 0.695 µM) | 0.4 mg/L (≈ 0.695 µM) | 0.4 mg/L (≈ 0.695 µM) | > 0.08 mg/L | 0.08 mg/L (≈ 0.139 µM) | ≥ 10 mg/L | 0.08 mg/L (≈ 0.139 µM)
13 | COCCO[C@@H](Cn1c(=O)n(CC(=O)NC(C)C)c(=O)c2c(C)c(-n3nccn3)sc21)c1cc(F)ccc1OC [Compound I-086] | > 50 mg/L | > 50 mg/L | > 50 mg/L | ≥ 2 mg/L | > 50 mg/L | 10 mg/L (≈ 17.4 µM) | > 50 mg/L | 0.08 mg/L (≈ 0.139 µM)
14 | COc1ccc(F)cc1[C@H](Cn1c(=O)n(CC(=O)NC(C)C)c(=O)c2c(C)c(-n3nccn3)sc21)OCCO [Compound I-087] | > 50 mg/L | > 50 mg/L | 2 mg/L (≈ 3.57 µM) | 2 mg/L (≈ 3.57 µM) | 2 mg/L (≈ 3.57 µM) | 2 mg/L (≈ 3.57 µM) | > 50 mg/L | 0.08 mg/L (≈ 0.143 µM)
15 | COc1ccc(F)cc1[C@H](Cn1c(=O)n(CC(=O)N2CCCC2)c(=O)c2c(C)c(-n3nccn3)sc21)OCCO [Compound I-088] | > 50 mg/L | 2 mg/L (≈ 3.49 µM) | 2 mg/L (≈ 3.49 µM) | 0.4 mg/L (≈ 0.699 µM) | 0.08 mg/L (≈ 0.14 µM) | 0.08 mg/L (≈ 0.14 µM) | > 50 mg/L | 0.08 mg/L (≈ 0.14 µM)
16 | COc1ccc(F)cc1[C@H](Cn1c(=O)n([C@@H](C)C(=O)NC2CCC2)c(=O)c2c(C)c(-n3nccn3)sc21)OCCO [Compound I-091] | > 50 mg/L | 2 mg/L (≈ 3.41 µM) | ≥ 2 mg/L | 0.4 mg/L (≈ 0.682 µM) | 0.4 mg/L (≈ 0.682 µM) | 2 mg/L (≈ 3.41 µM) | > 50 mg/L | 0.08 mg/L (≈ 0.136 µM)

From US10941157B2, “Pesticidal compositions and uses thereof” (Gilead Apollo, LLC, priority 2015, dated 2021)
